Assay results from US20260248927A1, “TARGETED PROTEIN DEGRADATION USING BIFUNCTIONAL COMPOUNDS THAT BIND UBIQUITIN LIGASE AND TARGET MCL-1 PROTEIN” (Captor Therapeutics S.A., priority 2022, published 2026).
Structures can show the parent of a compound that is named as a salt.

How the values were obtained:
[1] = molecular target: [MCL-1]-[compound of formula (I)]—[CRBN/DDB1] (Homo sapiens, UniProt Q07820+Q96SW2); assay: HTRF ternary complex formation assay; assay type: binding; settings: hMcl-1 and CRBN, 180 min at 25° C.; read-out: HTRF ternary complex Average pEC50 by molecule (converted)
Chain of [MCL-1]-[compound of formula (I)]—[CRBN/DDB1] (Q07820 whole entry): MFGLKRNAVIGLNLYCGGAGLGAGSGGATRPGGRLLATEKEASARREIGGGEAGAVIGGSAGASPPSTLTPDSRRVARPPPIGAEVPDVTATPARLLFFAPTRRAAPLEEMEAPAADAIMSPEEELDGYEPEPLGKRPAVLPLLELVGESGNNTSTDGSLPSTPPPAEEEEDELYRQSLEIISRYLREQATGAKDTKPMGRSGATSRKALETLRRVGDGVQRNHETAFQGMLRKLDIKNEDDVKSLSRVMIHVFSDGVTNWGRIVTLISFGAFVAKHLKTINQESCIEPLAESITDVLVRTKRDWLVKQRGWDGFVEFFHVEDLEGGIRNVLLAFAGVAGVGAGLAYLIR
Chain of [MCL-1]-[compound of formula (I)]—[CRBN/DDB1] (Q96SW2 whole entry): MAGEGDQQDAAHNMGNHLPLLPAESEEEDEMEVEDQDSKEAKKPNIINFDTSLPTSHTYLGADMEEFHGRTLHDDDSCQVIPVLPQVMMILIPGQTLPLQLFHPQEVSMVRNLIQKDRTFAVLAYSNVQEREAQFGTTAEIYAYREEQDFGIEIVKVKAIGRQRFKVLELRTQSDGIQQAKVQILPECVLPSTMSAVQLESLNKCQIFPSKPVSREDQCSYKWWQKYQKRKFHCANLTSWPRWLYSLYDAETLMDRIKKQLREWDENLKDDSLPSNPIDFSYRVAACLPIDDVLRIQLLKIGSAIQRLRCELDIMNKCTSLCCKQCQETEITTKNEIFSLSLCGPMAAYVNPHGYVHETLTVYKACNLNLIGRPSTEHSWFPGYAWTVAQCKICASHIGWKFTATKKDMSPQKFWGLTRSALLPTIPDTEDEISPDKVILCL
Chain of [MCL-1]-[compound of formula (I)]—[CRBN/DDB1] (Q16531 whole entry partner): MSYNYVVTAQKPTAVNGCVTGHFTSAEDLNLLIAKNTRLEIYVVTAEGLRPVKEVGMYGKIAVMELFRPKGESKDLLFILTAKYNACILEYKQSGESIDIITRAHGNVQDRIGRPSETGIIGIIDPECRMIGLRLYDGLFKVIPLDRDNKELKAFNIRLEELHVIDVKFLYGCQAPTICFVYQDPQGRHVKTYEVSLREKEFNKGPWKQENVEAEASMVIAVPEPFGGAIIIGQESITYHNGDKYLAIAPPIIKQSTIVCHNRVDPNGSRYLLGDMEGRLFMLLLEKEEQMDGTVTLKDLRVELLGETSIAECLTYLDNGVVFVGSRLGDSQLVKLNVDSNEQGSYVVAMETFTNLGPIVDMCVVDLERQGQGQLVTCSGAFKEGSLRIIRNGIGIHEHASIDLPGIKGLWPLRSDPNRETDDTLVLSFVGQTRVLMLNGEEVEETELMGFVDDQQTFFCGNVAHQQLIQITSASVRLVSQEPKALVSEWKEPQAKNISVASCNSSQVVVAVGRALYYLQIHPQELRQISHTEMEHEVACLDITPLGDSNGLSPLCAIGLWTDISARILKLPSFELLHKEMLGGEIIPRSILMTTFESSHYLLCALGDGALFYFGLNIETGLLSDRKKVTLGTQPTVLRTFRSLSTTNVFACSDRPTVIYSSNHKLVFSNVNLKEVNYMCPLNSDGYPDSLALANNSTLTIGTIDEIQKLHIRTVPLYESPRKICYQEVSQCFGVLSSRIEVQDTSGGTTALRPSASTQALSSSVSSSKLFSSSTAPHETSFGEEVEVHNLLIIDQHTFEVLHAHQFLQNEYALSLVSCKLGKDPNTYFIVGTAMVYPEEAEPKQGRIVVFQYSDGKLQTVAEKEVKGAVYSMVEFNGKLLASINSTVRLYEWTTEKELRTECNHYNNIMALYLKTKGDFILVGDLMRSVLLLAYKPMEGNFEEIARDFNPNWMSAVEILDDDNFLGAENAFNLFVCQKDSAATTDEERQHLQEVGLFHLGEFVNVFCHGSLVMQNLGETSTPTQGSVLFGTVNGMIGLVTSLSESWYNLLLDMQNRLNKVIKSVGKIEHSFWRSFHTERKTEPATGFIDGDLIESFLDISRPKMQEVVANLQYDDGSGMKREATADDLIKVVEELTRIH
Procedure: The effect of the bifunctional compounds of the invention on the formation of a ternary complex composed of [MCL-1]-[compound of formula (I)]—[CRBN/DDB1] was investigated with HTRF ternary complex assay.
Mix of protein solution was prepared: • 48 nM hMcl-1 and 105.6 nM CRBN were prepared in PPI Europium detection buffer with 2 mM DTT. • Acceptor and donor stock solutions were diluted 100 times in PPI Europium detection buffer. Equal volumes of both reagents were mixed. Finally giving 3 nM of Streptavidin-Eu cryptate ([…]) and 6.67 nM of Anti-6×his-d2 ([…]).
5 μl of protein mix was dispensed to all wells. The tested compounds in dose-response were dispensed onto a white 384-well low volume plate (Greiner, 784075). DMSO was backfilled to all wells, resulting in a final DMSO content of 0.5%. Wells containing only DMSO served as a background. Next, 5 μl of solution with donor and acceptor was added to the wells.
The plate was sealed with transparent film and shaken using a VibroTurbulator for 60 sec at level 3. The plate was then spun down shortly (10 s, 1000 rcf) and incubated at 25° C. for 180 min.
The read-out was performed with plate reader (Pherastar, BMG Labtech) in time resolved fluorescence mode. Filterset: TR 337 665 620.
The results were analyzed as follows: • 1) an average of fluorescence for background signal was calculated and used as a negative control; • 2) raw fluorescence values for tested compounds were normalized against negative controls; • 3) bell shape curve was fitted to a gaussian distribution using a non-linear least squares Gauss-Newton algorithm; • 4) EC50 and pEC50 values were determined.

MV4-11 cells = assay: Cell viability assay (CellTiter-Glo), MV4-11; assay type: cell-based; settings: Homo sapiens, MV4-11, 24 hours, 1% FBS, read-out: Average pCC50 by molecule MV4-11 (converted)
Excerpt: (§1) The effect of various compounds of the invention on the viability of MV4-11 and ARH-77 cell lines was investigated, using the CTG protocol described below.
(§2) MV4-11 cell lines are derived from acute myeloid leukaemia and it is described in the literature as a MCL-1 dependent cell line, as opposed to lymphoblast-like ARH-77 cell line, which is described as independent of MCL-1 (Tron A E et al. Nat Commun. 2018; 9: 5341; Caenepeel S et al. Cancer Discov. 2018 December; 8(12): 1582-1597).
(§3) Cells (MV4-11 or ARH-77) were seeded on […] in a growth medium with 1% FBS. Next, compound stocks were pre-diluted in DMSO and added directly to the cell culture media (final DMSO concentration: 0.5%). Compound concentrations used in this assay: 1/3 dilutions starting at 30 μM (9 to 12 points). After 24 hours of incubation, cell viability was evaluated using CellTiter-Glo Luminescent Cell Viability Assay (Promega, cat #G7572). The luminescence signal was measured using a CLARIOstar Plus Multi-Mode Microplate Reader (574-590 nm).
(§4) Results were normalized to DMSO control. Collected data were analyzed using GraphPad Prism to calculate pCC50 values.

[2] = Cell viability assay (CellTiter-Glo), ARH-77; assay type: cell-based; settings: human, ARH-77 cells (lymphoblast-like, MCL-1 independent), ARH-77, 24 hours, 1% FBS, read-out: Average pCC50 by molecule ARH-77 (converted)
Excerpt: as §1, §2, §3, §4

EC50 [1] [nM] | SMILES | CC50 (MV4-11 cells) [nM] | CC50 at 24 h [2] [nM]
< 100 | COc1ccc2c(c1OCC(=O)N1CCN(CCn3c(C(=O)O)c(CCCOc4cccc5cc(F)ccc45)c4ccc(Cl)c(-c5c(C)nn(C)c5C)c43)CC1)CN(C1CCC(=O)NC1=O)C2=O (stereo not drawn) [Compound 7, 6-Chloro-1-{2-[4-(2-{[2-(2,6-dioxopiperidin-3-yl)-5-methoxy-1-oxo-2,3-dihydro-1H-isoindol-4-yl]oxy}acetyl)piperazin-1-yl]ethyl}-3-{3-[(6-fluoronaphthalen-1-yl)oxy]propyl}-7-(1,3,5-trimethyl-1H-pyrazol-4-yl)-1H-indole-2-carboxylic acid] | < 100 | > 10000
< 316 | Cc1nn(C)c(C)c1-c1c(Cl)ccc2c(CCCOc3cccc4cc(F)ccc34)c(C(=O)O)n(CCN3CCN(C(=O)COc4cccc5c4n(C)c(=O)n5C4CCC(=O)NC4=O)CC3)c12 (stereo not drawn) [Compound 23, 6-Chloro-1-(2-(4-(2-((1-(2,6-dioxopiperidin-3-yl)-3-methyl-2-oxo-2,3-dihydro-1H-benzo[d]imidazol-4-yl)oxy)acetyl)piperazin-1-yl)ethyl)-3-(3-((6-fluoronaphthalen-1-yl)oxy)propyl)-7-(1,3,5-trimethyl-1H-pyrazol-4-yl)-1H-indole-2-carboxylic acid] | < 31.6 | > 10000
< 100 | Cc1nc2c(C(=O)NC3CCC(=O)NC3=O)cc(OCCC(=O)N3CCN(CCn4c(C(=O)O)c(CCCOc5cccc6cc(F)ccc56)c5ccc(Cl)c(-c6c(C)nn(C)c6C)c54)CC3)cc2[nH]1 (stereo not drawn) [Compound 3, 6-Chloro-1-(2-{4-[3-({4-[(2,6-dioxopiperidin-3-yl)carbamoyl]-2-methyl-1H-1,3-benzodiazol-6-yl}oxy)propanoyl]piperazin-1-yl}ethyl)-3-{3-[(6-fluoronaphthalen-1-yl)oxy]propyl}-7-(1,3,5-trimethyl-1H-pyrazol-4-yl)-1H-indole-2-carboxylic acid] | < 100 | > 31600
< 31.6 | Cc1nn(C)c(C)c1-c1c(Cl)ccc2c(CCCOc3cccc4cc(F)ccc34)c(C(=O)O)n(CCN3CCN(C(=O)COc4ccc5c6c(cccc46)C(=O)N5C4CCC(=O)NC4=O)CC3)c12 (stereo not drawn) [Compound 21, 6-Chloro-1-(2-(4-(2-((1-(2,6-dioxopiperidin-3-yl)-2-oxo-1,2-dihydrobenzo[cd]indol-6-yl)oxy)acetyl)piperazin-1-yl)ethyl)-3-(3-((6-fluoronaphthalen-1-yl)oxy)propyl)-7-(1,3,5-trimethyl-1H-pyrazol-4-yl)-1H-indole-2-carboxylic acid] | < 316 | > 10000
< 100 | Cc1nn(C)c(C)c1-c1c(Cl)ccc2c(CCCOc3cccc4cc(F)ccc34)c(C(=O)O)n(CCN3C(C)CN(C(=O)COc4cccc5c4CN(C4CCC(=O)NC4=O)C5=O)CC3C)c12 (stereo not drawn) [Compound 28, 6-Chloro-1-{2-[4-(2-{[2-(2,6-dioxopiperidin-3-yl)-1-oxo-2,3-dihydro-1H-isoindol-4-yl]oxy}acetyl)-2,6-dimethylpiperazin-1-yl]ethyl}-3-{3-[(6-fluoronaphthalen-1-yl)oxy]propyl}-7-(1,3,5-trimethyl-1H-pyrazol-4-yl)-1H-indole-2-carboxylic acid] | < 316 | > 10000
< 316 | Cc1nn(C)c(C)c1-c1c(Cl)ccc2c(CCCOc3cccc4cc(F)ccc34)c(C(=O)O)n(CCN3CCN(C(=O)COc4cccc5c4C(C)N(C4CCC(=O)NC4=O)C5=O)CC3)c12 (stereo not drawn) [Compound 15, 6-Chloro-1-{2-[4-(2-{[2-(2,6-dioxopiperidin-3-yl)-3-methyl-1-oxo-2,3-dihydro-1H-isoindol-4-yl]oxy}acetyl)piperazin-1-yl]ethyl}-3-{3-[(6-fluoronaphthalen-1-yl)oxy]propyl}-7-(1,3,5-trimethyl-1H-pyrazol-4-yl)-1H-indole-2-carboxylic acid] | < 100 | > 10000
< 31.6 | Cc1nn(C)c(C)c1-c1c(Cl)ccc2c(CCCOc3cccc4cc(F)ccc34)c(C(=O)O)n(CCN3CCN(C(=O)COc4cc(N5CCCCC5)cc5c4CN(C4CCC(=O)NC4=O)C5=O)CC3)c12 (stereo not drawn) [Compound 14, 6-Chloro-1-{2-[4-(2-{[2-(2,6-dioxopiperidin-3-yl)-1-oxo-6-(piperidin-1-yl)-2,3-dihydro-1H-isoindol-4-yl]oxy}acetyl)piperazin-1-yl]ethyl}-3-{3-[(6-fluoronaphthalen-1-yl)oxy]propyl}-7-(1,3,5-trimethyl-1H-pyrazol-4-yl)-1H-indole-2-carboxylic acid] | < 316 | > 3160
< 316 | Cc1nn(C)c(C)c1-c1c(Cl)ccc2c(CCCOc3cccc4cc(F)ccc34)c(C(=O)O)n(CCN3CCN(C(=O)COc4cc(N)cc5c4CN(C4CCC(=O)NC4=O)C5=O)CC3)c12 (stereo not drawn) [Compound 11, 1-{2-[4-(2-{[6-Amino-2-(2,6-dioxopiperidin-3-yl)-1-oxo-2,3-dihydro-1H-isoindol-4-yl]oxy}acetyl)piperazin-1-yl]ethyl}-6-chloro-3-{3-[(6-fluoronaphthalen-1-yl)oxy]propyl}-7-(1,3,5-trimethyl-1H-pyrazol-4-yl)-1H-indole-2-carboxylic acid] | < 100 | > 10000
< 100 | COCCOCCn1nc(C)c(-c2c(Cl)ccc3c(CCCOc4cccc5cc(F)ccc45)c(C(=O)O)n(CCN4CCN(C(=O)COc5cccc6c5CN(C5CCC(=O)NC5=O)C6=O)CC4)c23)c1C (stereo not drawn) [Compound 147, 1-(2-(2-Carboxy-6-chloro-3-(3-((6-fluoronaphthalen-1-yl)oxy)propyl)-7-(1-(2-(2-methoxyethoxy)ethyl)-3,5-dimethyl-1H-pyrazol-4-yl)-1H-indol-1-yl)ethyl)-4-(2-((2-(2,6-dioxopiperidin-3-yl)-1-oxoisoindolin-4-yl)oxy)acetyl)piperazin-1-ium trifluoroacetate] | < 100 | > 31600
< 100 | Cc1nn(C)c(C)c1-c1c(Cl)ccc2c(CCCOc3cccc4cc(F)ccc34)c(C(=O)O)n(CCN3CCN(C(=O)COc4ccc5c(c4)n(C)c(=O)n5C4CCC(=O)NC4=O)CC3)c12 (stereo not drawn) [Compound 22, 6-Chloro-1-(2-(4-(2-((1-(2,6-dioxopiperidin-3-yl)-3-methyl-2-oxo-2,3-dihydro-1H-benzo[d]imidazol-5-yl)oxy)acetyl)piperazin-1-yl)ethyl)-3-(3-((6-fluoronaphthalen-1-yl)oxy)propyl)-7-(1,3,5-trimethyl-1H-pyrazol-4-yl)-1H-indole-2-carboxylic acid] | < 31.6 | > 31600
< 100 | Cc1nn(C)c(C)c1-c1c(Cl)ccc2c(CCCOc3cccc4cc(F)ccc34)c(C(=O)O)n(CCN3CCN(C(=O)Cn4c(C)nc5c(C(=O)NC6CCC(=O)NC6=O)ccc(F)c54)CC3)c12 (stereo not drawn) [Compound 1, 6-Chloro-1-(2-(4-(2-(4-((2,6-dioxopiperidin-3-yl)carbamoyl)-7-fluoro-2-methyl-1H-benzo[d]imidazol-1-yl)acetyl)piperazin-1-yl)ethyl)-3-(3-((6-fluoronaphthalen-1-yl)oxy)propyl)-7-(1,3,5-trimethyl-1H-pyrazol-4-yl)-1H-indole-2-carboxylic acid] | < 100 | > 10000
< 31.6 | Cc1nn(C)c(C)c1-c1c(Cl)ccc2c(CCCOc3cccc4cc(F)ccc34)c(C(=O)O)n(CCN3CCC(CN4CCN(c5ccc6c(c5)C(C)N(C5CCC(=O)NC5=O)C6=O)CC4)CC3)c12 (mixture of isomers) [Compound 145, 6-Chloro-1-(2-(4-((4-(2-(2,6-dioxopiperidin-3-yl)-3-methyl-1-oxoisoindolin-5-yl)piperazin-1-yl)methyl)piperidin-1-yl)ethyl)-3-(3-((6-fluoronaphthalen-1-yl)oxy)propyl)-7-(1,3,5-trimethyl-1H-pyrazol-4-yl)-1H-indole-2-carboxylic acid] | < 100 | > 10000
